Source: patent publication US6821980B1, “Substituted 5-benzyl-2,4-diaminopyrimidines” (Basilea Pharmaceutica AG, priority 1999, dated 2004)
≈ marks a conversion by molar mass, not a printed value. Where two headings read alike, the source gives them in different places.

Tests used:
[1] = test system: Streptococcus pneumoniae 1/1; assay: MIC against Streptococcus pneumoniae 1/1; type: cell-based; settings: Streptococcus pneumoniae 1/1, trimethoprim- and penicillin-resistant, serotype 6, clinical isolate, read-out: MIC Sp1/1
[2] = test system: Staphylococcus aureus 101; assay: MIC against Staphylococcus aureus 101; type: cell-based; settings: Staphylococcus aureus 101, MRSA- and trimethoprim-resistant, clinical isolate, read-out: MIC Sa101
[3] = molecular target: T1, purified DHFR of strain Sp1/1 of Streptococcus pneumoniae (Streptococcus pneumoniae serotype 4, UniProt Q54801); type: biochemical; settings: IC50 against purified DHFR of strain Sp1/1
T1 sequence (Q54801 1-168 I100L): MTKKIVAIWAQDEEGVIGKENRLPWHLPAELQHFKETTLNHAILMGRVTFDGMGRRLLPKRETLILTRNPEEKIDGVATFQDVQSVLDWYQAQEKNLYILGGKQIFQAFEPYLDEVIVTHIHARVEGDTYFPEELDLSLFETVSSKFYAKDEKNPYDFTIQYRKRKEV

[4] = molecular target: purified DHFR of strain 157/4696 of Staphylococcus aureus (Staphylococcus aureus, UniProt P13955); assay: biochemical
Chain of purified DHFR of strain 157/4696 of Staphylococcus aureus (P13955 whole entry): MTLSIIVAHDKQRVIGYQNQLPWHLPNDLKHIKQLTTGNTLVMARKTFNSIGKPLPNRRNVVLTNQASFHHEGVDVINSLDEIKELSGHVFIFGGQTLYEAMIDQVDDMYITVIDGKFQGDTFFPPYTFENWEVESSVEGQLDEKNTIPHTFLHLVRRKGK

SMILES | MIC ([1]; Table 2) | MIC ([2]; Table 2) | IC50 ([3]; Table 2) | IC50 [4] | MIC ([1]; Table 1) | MIC ([2]; Table 1) | IC50 ([3]; Table 1)
CCOc1cc(Cc2cnc(N)nc2N)cc(OS(=O)(=O)N(C)C)c1-c1cccc(N)c1 [Example 19-a, Dimethyl-sulphamic acid 3′-amino-4-(2,4-diamino-pyrimidin-5-ylmethyl)-6-ethoxy-biphenyl-2-yl ester] | 1 µg/mL (≈ 2.18 µM) | 1 µg/mL (≈ 2.18 µM) | 6.2 nM | 85 nM |  |  | 
CCOc1cc(Cc2cnc(N)nc2N)cc(OS(=O)(=O)N2CCCCC2)c1-c1cccc(N)c1 [Example 19-b, Piperidine-1-sulphonic acid 3′-amino-4-(2,4-diamino-pyrimidin-5-ylmethyl)-6-ethoxy-biphenyl-2-yl ester] | 0.5 µg/mL (≈ 1 µM) | 1 µg/mL (≈ 2.01 µM) | 2.4 nM | 130 nM |  |  | 
CCOc1cc(Cc2cnc(N)nc2N)cc(OS(=O)(=O)N2CCCC2)c1-c1cccc(N)c1 [Example 19-c, Pyrrolidine-1-sulphonic acid 3′-amino-4-(2,4-diamino-pyrimidin-5-vlmethyl)-6-ethoxy-biphenyl-2-yl ester] | 1 µg/mL (≈ 2.06 µM) | 2 µg/mL (≈ 4.13 µM) | 19 nM | 66 nM |  |  | 
CCOc1cc(Cc2cnc(N)nc2N)cc(OS(=O)(=O)N(C)C(C)C)c1-c1cccc(N)c1 [Example 19-d, N-Isopropyl-N-methyl-sulphamic acid 3′-amino-4-(2,4-diamino-pyrimidin-5-ylmethyl)-6-ethoxy-biphenyl-2-yl ester] | 2 µg/mL (≈ 4.11 µM) | 2 µg/mL (≈ 4.11 µM) | 8.3 nM | 55 nM |  |  | 
CCOc1cc(Cc2cnc(N)nc2N)cc(OS(=O)(=O)N2CCOCC2)c1-c1cccc(N)c1 [Example 19-e, Morpholine-4-sulphonic acid 3′-amino-4-(2,4-diamino-pyrimidin-5-ylmethyl)-6-ethoxy-biphenyl-2-yl ester] | 1 µg/mL (≈ 2 µM) | 2 µg/mL (≈ 4 µM) | 3.9 nM | 38 nM |  |  | 
CCOc1cc(Cc2cnc(N)nc2N)cc(OS(=O)(=O)N(C)CC)c1-c1cccc(N)c1 [Example 19-f, N-Ethyl-N-methyl-sulphamic acid 3′-amino-4-(2,4-diamino-vyrimidin-5-ylmethyl)-6-ethoxy-biphenyl-2-yl ester] | 1 µg/mL (≈ 2.12 µM) | 1 µg/mL (≈ 2.12 µM) | 6.2 nM | 82 nM |  |  | 
CCOc1cc(Cc2cnc(N)nc2N)cc(OS(=O)(=O)N(C)C2CC2)c1-c1cccc(N)c1 [Example 19-g, N-Cclopropyl-N-methyl-sulphamic acid 3′-amino-4-(2,4-diamino-Ryrimidin-5-ylmethyl)-6-ethoxy-biphenyl-2-yl ester] | 1 µg/mL (≈ 2.06 µM) | 1 µg/mL (≈ 2.06 µM) | 6.8 nM | 56 nM |  |  | 
CCOc1cc(Cc2cnc(N)nc2N)cc(OS(=O)(=O)N(CC)CC)c1-c1cccc(N)c1 [Example 19-h, Diethyl-sulphamic acid 3′-amino-4-(2,4-diamino-pyrimidin-5-ylmethyl)-6-ethoxy-biphenyl-2-yl ester] | 1 µg/mL (≈ 2.06 µM) | 2 µg/mL (≈ 4.11 µM) | 0.55 nM | 160 nM |  |  | 
CCOc1cc(Cc2cnc(N)nc2N)cc(OS(=O)(=O)N(C)C)c1-c1ccc(O)cc1 [Example 20-a, Dimethyl-sulphamic acid 4-(2,4-diamino-pyrimidin-5-ylmethyl)-6-ethoxy-4′-hydroxy-biphenyl-2-yl ester] | 1 µg/mL (≈ 2.18 µM) | 2 µg/mL (≈ 4.35 µM) | 7.5 nM | 150 nM |  |  | 
CCOc1cc(Cc2cnc(N)nc2N)cc(OS(=O)(=O)N2CCCCC2)c1-c1ccc(O)cc1 [Example 20-b, Piperidine-1-sulphonic acid 4-(2,4-diamino-pyrimidin-5-ylmethyl)-6-ethoxy-4′-hydroxy-biphenyl-2-yl ester] | 0.5 µg/mL (≈ 1 µM) | 1 µg/mL (≈ 2 µM) | 1.8 nM | 140 nM |  |  | 
CCOc1cc(Cc2cnc(N)nc2N)cc(OS(=O)(=O)N2CCCC2)c1-c1ccc(O)cc1 [Example 20-c, Pyrrolidine-1-sulrbonic acid 4-(2,4-diamino-pyrimidin-5-ylmethyl)-6-ethoxy-4′-hydroxy-biphenyl-2-yl ester] | 1 µg/mL (≈ 2.06 µM) | 4 µg/mL (≈ 8.24 µM) | 8.1 nM | 180 nM |  |  | 
CCOc1cc(Cc2cnc(N)nc2N)cc(OS(=O)(=O)N2CCOCC2)c1-c1ccc(O)cc1 [Example 20-d, Morpholine-4-sulphonic acid 4-(2,4-diamino-pyrimidin-5-ylmethyl)-6-ethoxy-4′-hydroxy-biphenyl-2-yl ester] | 1 µg/mL (≈ 1.99 µM) | 8 µg/mL (≈ 16 µM) | 5.8 nM | 95 nM |  |  | 
CCOc1cc(Cc2cnc(N)nc2N)cc(OS(=O)(=O)N(C)C(C)C)c1-c1ccc(O)cc1 [Example 20-e, N-Isopropyl-N-methyl-sulphamic acid 4-(2,4-diamino-pvrimidin-5-ylmethyl)-6-ethoxy-4′-hydroxy-biphenyl-2-yl ester] | 2 µg/mL (≈ 4.1 µM) | 2 µg/mL (≈ 4.1 µM) | 14 nM | 160 nM |  |  | 
CCOc1cc(Cc2cnc(N)nc2N)cc(OS(=O)(=O)N(C)C2CC2)c1-c1ccc(O)cc1 [Example 20-f, N-Cyclopropld-N-methyl-sulphamic acid 4-(2,4-diamino-pyrimidin-5-ylmethyl)-6-ethoxy-4′-hydroxy-biphenyl-2-yl ester] | 1 µg/mL (≈ 2.06 µM) | 1 µg/mL (≈ 2.06 µM) | 9.8 nM | 140 nM |  |  | 
CCOc1cc(Cc2cnc(N)nc2N)cc(OS(=O)(=O)N(C)CC)c1-c1ccc(O)cc1 [Example 20-g, N-Ethyl-N-methyl-sulphamic acid 4-(2,4-diamino-pyrimidin-5-ylmethyl)-6-ethoxy-4′-hydroxy-biphenyl-2-yl ester] | 1 µg/mL (≈ 2.11 µM) | 2 µg/mL (≈ 4.22 µM) | 7.2 nM | 160 nM |  |  | 
CCOc1cc(Cc2cnc(N)nc2N)cc(OS(=O)(=O)N(CC)CC)c1-c1ccc(O)cc1 [Example 20-h, Diethyl-sulphamic acid 4-(2,4-diamino-pyrimidin-5-ylmethyl)-6-ethoxy-4′-hydroxy-biphenyl-2-yl ester] | 1 µg/mL (≈ 2.05 µM) | 2 µg/mL (≈ 4.1 µM) | 9.2 nM | 350 nM |  |  | 
CCOc1cc(Cc2cnc(N)nc2N)cc(OS(=O)(=O)N(C)C)c1-c1ccc(OC)cc1 [Example 21-, Dimethylsulphamic acid 4-(2,4-diamino-pyrimidin-5-ylmethyl)-6-ethoxy-4′-methoxy-biphenyl-2-yl ester] | 2 µg/mL (≈ 4.22 µM) | 2 µg/mL (≈ 4.22 µM) | 52 nM | 130 nM |  |  | 
CCOc1cc(Cc2cnc(N)nc2N)cc(OS(=O)(=O)N(C)C)c1-c1ccc(N)cc1 [Example 22-a, Dimethylsulphamic acid 4′-amino-4-(2,4-diamino-pyrimidin-5-ylmethyl)-6-ethoxy-biphenyl-2-yl ester] | 1 µg/mL (≈ 2.18 µM) | 2 µg/mL (≈ 4.36 µM) | 3.1 nM | 48 nM |  |  | 
CCOc1cc(Cc2cnc(N)nc2N)cc(OS(=O)(=O)N(C)CC)c1-c1ccc(N)cc1 [Example 22-b, N-Ethyl-N-methyl-sulphamic acid 4′-amino-4-(2,4-diamino-pyrimidin-5-ylmethyl)-6-ethoxy-biphenyl-2-yl ester] | 1 µg/mL (≈ 2.12 µM) | 1 µg/mL (≈ 2.12 µM) | 2.3 nM | 38 nM |  |  | 
CCOc1cc(Cc2cnc(N)nc2N)cc(OS(=O)(=O)N2CCCC2)c1-c1ccc(N)cc1 [Example 22-c, Pyrrolidine-1-sulphonic acid 4′-amino-4-(2,4-diamino-Ryrimidin-5-ylmethyl)-6-ethoxy-biphenyl-2-yl ester] | 1 µg/mL (≈ 2.06 µM) | 1 µg/mL (≈ 2.06 µM) | 3.3 nM | 140 nM |  |  | 
CCOc1cc(Cc2cnc(N)nc2N)cc(OS(=O)(=O)N2CCOCC2)c1-c1ccc(N)cc1 [Example 22-d, Morpholine-4-sulphonic acid 4′-amino-4-(2,4-diamino-pyrimidin-5-ylmethyl)-6-ethoxy-biphenyl-2-yl ester] | 1 µg/mL (≈ 2 µM) | 2 µg/mL (≈ 4 µM) | 6.1 nM | 45 nM |  |  | 
CCOc1cc(Cc2cnc(N)nc2N)cc(OS(=O)(=O)N(CC)CC)c1-c1ccc(N)cc1 [Example 22-f, Diethylsulphamic acid 4′-amino-4-(2,4-diamino-pyrimidin-5-ylmethyl)-6-ethoxy-biphenyl-2-yl ester] | 1 µg/mL (≈ 2.06 µM) | 2 µg/mL (≈ 4.11 µM) | 14 nM | 150 nM |  |  | 
CCOc1cc(Cc2cnc(N)nc2N)cc(OS(=O)(=O)N(C)C2CC2)c1-c1ccc(N)cc1 [Example 22e, N-Cyclopropyl-N-methyl-sulphamic acid 4′-amino-4-(2,4-diamino-pyrimidin-5-ylmethyl)-6-ethoxy-biphenyl-2-yl ester] |  |  |  | 150 nM | 1 µg/mL (≈ 2.06 µM) | 2 µg/mL (≈ 4.13 µM) | 13 nM
CCOc1cc(Cc2cnc(N)nc2N)cc(OCC2CC2)c1-c1ccc(CN2CCOCC2)s1 [Example 23-, 5-[3-Cyclopropylmethoxy-5-ethoxy-4-(5-morpholin-4-ylmethyl-thiophen-2-yl)-benzyl]-pyrimidine-2,4-diamine] | 1 µg/mL (≈ 2.02 µM) | 8 µg/mL (≈ 16.1 µM) | 8 nM | 2600 nM |  |  | 
CCOc1cc(Cc2cnc(N)nc2N)cc(OS(=O)(=O)C2CC2)c1-c1ccc(CN2CCOCC2)s1 [Example 24-, Cyclopropanesulphonic acid 5-(2,4-diamino-pyrimidin-5-ylmethyl)-3-ethoxy-2-(5-morpholin-4-ylmethyl-thiophen-2-yl)-phenyl ester] | 1 µg/mL (≈ 1.83 µM) | 4 µg/mL (≈ 7.33 µM) | 16 nM | 190 nM |  |  | 
